Columns and labels:
[1] = 101 kPa, Liquid; for viscosity: Capillary tube (Ostwald / Ubbelohde) method; for mass density: Pycnometric method
[2] = xn = mol fraction of the nth substance listed; conditions: 101 kPa, Liquid; for viscosity: Capillary tube (Ostwald / Ubbelohde) method; for mass density: Pycnometric method

COCC(C)OC(C)=O (configuration not stated) [1-methoxy-2-propyl acetate]
[1]
Conditions | mass density [kg/m3] | viscosity [mPa·s]
298.15 K | 961.4 | 1.071
308.15 K | 951.4 | 0.904
318.15 K | 940.7 | 0.777

COCC(C)OC(C)=O (configuration not stated) [1-methoxy-2-propyl acetate] + C=C(C)C(=O)O
[2], x1 = 1
Conditions | mass density [kg/m3] | viscosity [mPa·s]
298.15 K | 961.4 | 1.071
308.15 K | 951.4 | 0.904
318.15 K | 940.7 | 0.777

COCC(C)OC(C)=O (configuration not stated) [1-methoxy-2-propyl acetate] + C=C(C)C(=O)OCCO
[2], x1 = 1
Conditions | mass density [kg/m3] | viscosity [mPa·s]
298.15 K | 961.4 | 1.071
308.15 K | 951.4 | 0.904
318.15 K | 940.7 | 0.777

COCC(C)OC(C)=O (configuration not stated) [1-methoxy-2-propyl acetate] + C=C(C)C(=O)OCc1ccccc1
[2], x1 = 1
Conditions | mass density [kg/m3] | viscosity [mPa·s]
298.15 K | 961.4 | 1.071
308.15 K | 951.4 | 0.904
318.15 K | 940.7 | 0.777

C=C(C)C(=O)OCCO [2-hydroxyethyl 2-methyl-2-propenoate]
[1]
Conditions | mass density [kg/m3] | viscosity [mPa·s]
298.15 K | 1067.1 | 5.784
308.15 K | 1057.7 | 4.194
318.15 K | 1048.6 | 3.181

C=C(C)C(=O)OCCO [2-hydroxyethyl 2-methyl-2-propenoate] + COCC(C)OC(C)=O
[2]
Conditions | mass density, 298.15 K [kg/m3] | mass density, 308.15 K [kg/m3] | mass density, 318.15 K [kg/m3] | viscosity, 298.15 K [mPa·s] | viscosity, 308.15 K [mPa·s] | viscosity, 318.15 K [mPa·s]
x2 = 0 | 1067.1 | 1057.7 | 1048.6 | 5.784 | 4.194 | 3.181
x2 = 0.1 | 1056.4 | 1046.7 | 1037.3 | 4.764 | 3.519 | 2.71
x2 = 0.2 | 1045.7 | 1035.9 | 1026.1 | 3.84 | 2.9 | 2.273
x2 = 0.3 | 1034.9 | 1025 | 1015.1 | 3.222 | 2.477 | 1.969
x2 = 0.4 | 1024.1 | 1014.2 | 1004.1 | 2.719 | 2.123 | 1.709
x2 = 0.5 | 1013.5 | 1003.5 | 993.3 | 2.257 | 1.79 | 1.461
x2 = 0.6 | 1003 | 993 | 982.6 | 1.922 | 1.55 | 1.284
x2 = 0.7 | 992.6 | 982.5 | 972 | 1.651 | 1.341 | 1.117
x2 = 0.8 | 982.2 | 971.9 | 961.3 | 1.389 | 1.147 | 0.969
x2 = 0.8999 | 971.8 | 961.5 | 950.8 | 1.234 | 1.052 | 0.889

C=C(C)C(=O)O [2-methyl-2-propenoic acid]
[1]
Conditions | mass density [kg/m3] | viscosity [mPa·s]
298.15 K | 1009.5 | 1.267
308.15 K | 999.4 | 1.078
318.15 K | 989.2 | 0.945

C=C(C)C(=O)O [2-methyl-2-propenoic acid] + COCC(C)OC(C)=O
[2]
Conditions | mass density, 298.15 K [kg/m3] | mass density, 308.15 K [kg/m3] | mass density, 318.15 K [kg/m3] | viscosity, 298.15 K [mPa·s] | viscosity, 308.15 K [mPa·s] | viscosity, 318.15 K [mPa·s]
x2 = 0 | 1009.5 | 999.4 | 989.2 | 1.267 | 1.078 | 0.945
x2 = 0.1 | 1004 | 994.1 | 983.9 | 1.423 | 1.202 | 1.033
x2 = 0.2 | 999 | 989.3 | 979.4 | 1.506 | 1.301 | 1.105
x2 = 0.3 | 993.9 | 984.1 | 973.9 | 1.56 | 1.345 | 1.124
x2 = 0.3999 | 989.1 | 979.2 | 968.9 | 1.585 | 1.348 | 1.125
x2 = 0.5 | 984.8 | 975 | 964.8 | 1.569 | 1.31 | 1.1
x2 = 0.6 | 980.1 | 970.3 | 959.9 | 1.499 | 1.24 | 1.049
x2 = 0.7 | 975.8 | 966 | 955.5 | 1.411 | 1.168 | 0.988
x2 = 0.7999 | 970.8 | 960.9 | 950.5 | 1.301 | 1.081 | 0.929
x2 = 0.9 | 965.8 | 956 | 945.6 | 1.175 | 0.985 | 0.844

C=C(C)C(=O)OCc1ccccc1 [benzyl methacrylate]
[1]
Conditions | mass density [kg/m3] | viscosity [mPa·s]
298.15 K | 1034.7 | 2.302
308.15 K | 1025.8 | 1.885
318.15 K | 1017 | 1.58

C=C(C)C(=O)OCc1ccccc1 [benzyl methacrylate] + COCC(C)OC(C)=O
[2]
Conditions | mass density, 298.15 K [kg/m3] | mass density, 308.15 K [kg/m3] | mass density, 318.15 K [kg/m3] | viscosity, 298.15 K [mPa·s] | viscosity, 308.15 K [mPa·s] | viscosity, 318.15 K [mPa·s]
x2 = 0 | 1034.7 | 1025.8 | 1017 | 2.302 | 1.885 | 1.58
x2 = 0.1 | 1029 | 1019.9 | 1010.9 | 2.245 | 1.84 | 1.544
x2 = 0.2 | 1023.1 | 1013.8 | 1004.6 | 2.123 | 1.743 | 1.465
x2 = 0.3 | 1017 | 1007.6 | 998.2 | 1.991 | 1.638 | 1.377
x2 = 0.4 | 1010.6 | 1001.1 | 991.5 | 1.857 | 1.53 | 1.289
x2 = 0.4999 | 1003.8 | 994.2 | 984.4 | 1.694 | 1.399 | 1.183
x2 = 0.6 | 996.6 | 986.9 | 976.9 | 1.559 | 1.286 | 1.086
x2 = 0.7 | 989 | 979.2 | 969 | 1.434 | 1.189 | 1.007
x2 = 0.8 | 980.7 | 970.7 | 960.3 | 1.327 | 1.105 | 0.937
x2 = 0.9 | 971.9 | 961.8 | 951.2 | 1.232 | 1.028 | 0.874
